These results are taken from ChEMBL document CHEMBL1201862, “PubChem BioAssay data set” (2004).

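Where inhibition never reached the appropriate level, the endpoint shown equals the highest concentration tested. Otherwise, values were interpolated linearly from a five-concentration, 48-hour dose response in 96-well plates. GI50 marks 50% less growth.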 The source made the active and inactive calls. Rule as the data show it: active = GI50 up to about 1.1 µM and inactive = higher. Bounds are passed on as bounds.

Some test systems named below: 786-0; DMS-114; HCC 2998; HCT-15; HL-60; HT-29; M14; NCI-H460; NCI-H522; OVCAR-3; OVCAR-5; OVCAR-8; SF-268; U-251; UACC-62; UO-31; OVCAR-4; NCI-H226; DU-145; SR.
What all share (test): DTP human tumour cell line panel, 48 h

On to `Cn1cc2ccccc2c1-c1nc(F)nc(Oc2ccc3c(c2)CC[C@@H]2C3CC[C@@]3(C)C2C[C@H](O)[C@@H]3O)n1` (stereo not given in full), for which the GI50 in the assay on 786-0 is 16.4 µM (inactive); in the assay with DMS-114 it was 12.3 µM (inactive); in the assay with HCC 2998 it was 15.4 µM (inactive); in the assay on HCT-15, 12.2 µM; in the assay on HL-60 it was 22.4 µM (inactive); in the assay on HT-29, 19.3 µM (inactive). The GI50 in the assay on M14 was 15.9 µM (inactive); in the assay on NCI-H460 it was 30.9 µM (inactive); in the assay on NCI-H522, 11.8 µM (inactive); in the assay on OVCAR-3 it was 20.7 µM (inactive); with OVCAR-5 it was 19.2 µM (inactive); in the assay with OVCAR-8, 15.8 µM (inactive). For the same compound, the GI50 is 13.1 µM (inactive) in the assay with SF-268, 10.3 µM (inactive) with U-251, 17.5 µM (inactive) in the assay with UACC-62 and 16.4 µM (inactive) in the assay on UO-31.
Turning to `NC(=O)c1ccccc1NC(=O)C(=O)Cc1nc2ccccc2nc1O`, the GI50 with 786-0 is > 100 µM (inactive); in the assay with DMS-114, 94.6 µM (inactive); in the assay on HCC 2998 it was > 100 µM (inactive); with HCT-15, > 100 µM; with HL-60, > 100 µM (inactive); with M14, > 100 µM (inactive). Also, the GI50 in the assay with NCI-H460 is > 100 µM (inactive); in the assay with NCI-H522, > 100 µM (inactive); with OVCAR-3 it was > 100 µM (inactive); in the assay with OVCAR-4 it was > 100 µM (inactive); with OVCAR-5, 96.2 µM (inactive); in the assay with OVCAR-8, 50 µM (inactive). Further, the GI50 with SF-268, with U-251, in the assay on UACC-62 and in the assay with UO-31 was > 100 µM (inactive) throughout.
On to `C=CCCCCCCCC(O)C1C[C@H](O)C(CCCCC)O1` (stereo not given in full), for which the GI50 is 17.9 µM (inactive) with 786-0; 17.3 µM (inactive) in the assay with DMS-114; 17.9 µM (inactive) in the assay with HCC 2998; 21.5 µM in the assay on HCT-15; 17.5 µM (inactive) in the assay with HL-60; 18.6 µM (inactive) with HT-29. Further, the GI50 in the assay on M14 is 17.7 µM (inactive); with NCI-H226, 13.4 µM (inactive); in the assay on NCI-H460, 18.9 µM (inactive); in the assay on NCI-H522, 17.1 µM (inactive); with OVCAR-3 it was 17.5 µM (inactive); in the assay on OVCAR-8, 19.9 µM (inactive). Further, the GI50 in the assay on U-251 was 16 µM (inactive); in the assay on UACC-62, 15 µM (inactive); with UO-31, 17.8 µM (inactive).
On to `O=C(CNc1c(Cl)cccc1Cl)NC1C=Cc2ccc(S(=O)(=O)Nc3c(Cl)cccc3Cl)cc2C1=O` (stereo not given), for which the GI50 in the assay with 786-0 is > 100 µM (inactive); in the assay with DU-145, > 100 µM (inactive); in the assay on HCC 2998, 67.5 µM (inactive); in the assay with HCT-15, 79.1 µM; with HL-60, 75.2 µM (inactive); in the assay with HT-29 it was 50.2 µM (inactive). Besides, the GI50 in the assay on M14 was > 100 µM (inactive); in the assay with NCI-H226, 17.5 µM (inactive); in the assay on NCI-H460, > 100 µM (inactive); in the assay on NCI-H522, 30.5 µM (inactive); in the assay on OVCAR-3, 42.5 µM (inactive); with OVCAR-4 it was > 100 µM (inactive). Also, the GI50 with OVCAR-5 is 47.1 µM (inactive); in the assay with OVCAR-8, > 100 µM (inactive); in the assay on SF-268 it was 48.3 µM (inactive); in the assay on SR, > 100 µM (inactive); in the assay on U-251, > 100 µM (inactive); with UACC-62, 79.6 µM (inactive). For the same compound, the GI50 in the assay with UO-31 was 26.9 µM (inactive).
As to `O=C(O)/C(=C/C=C/c1ccccc1)c1csc(-c2nc(/C(=C\C=C\c3ccccc3)C(=O)O)cs2)n1`, the GI50 in the assay with 786-0 was 23.2 µM (inactive); in the assay with DMS-114, 23.7 µM (inactive); in the assay with HCC 2998, 20.1 µM (inactive); with HCT-15, 23.4 µM; in the assay on HL-60 it was 17.5 µM (inactive); in the assay on HT-29, 38.2 µM (inactive). The GI50 was 22.9 µM (inactive) in the assay with M14; 40.8 µM (inactive) in the assay on NCI-H460; 23.4 µM (inactive) in the assay with OVCAR-3; > 100 µM (inactive) in the assay on OVCAR-5; 44.8 µM (inactive) in the assay with OVCAR-8; 30.7 µM (inactive) in the assay with SF-268. The GI50 is 38.5 µM (inactive) in the assay on U-251, 28.8 µM (inactive) in the assay with UACC-62 and 18.5 µM (inactive) with UO-31.
As for `CCN(CC)CCN1c2ccccc2Sc2ccc3ccccc3c21`, the GI50 in the assay on 786-0 is 11.3 µM (inactive); with DU-145 it was 3.93 µM (inactive); in the assay on HCC 2998, 2.23 µM (inactive); in the assay with HCT-15, 6.9 µM; in the assay on HL-60, 3.54 µM (inactive); with HT-29, 3.18 µM (inactive). Besides, the GI50 in the assay with M14 was 3.01 µM (inactive); in the assay with NCI-H226 it was 7.45 µM (inactive); in the assay on NCI-H460, 2.07 µM (inactive); in the assay on NCI-H522, 11.8 µM (inactive); with OVCAR-3, 11.6 µM (inactive); with OVCAR-4, 5.36 µM (inactive). In addition, the GI50 in the assay with OVCAR-5 is 9.1 µM (inactive); in the assay on OVCAR-8 it was 12.6 µM (inactive); with SF-268 it was 14.4 µM (inactive); with SR, 4.94 µM (inactive); in the assay with U-251, 9.38 µM (inactive); in the assay on UACC-62, 8.57 µM (inactive). Also, in the assay on UO-31, the GI50 is 5.81 µM (inactive).
For the compound `CC1=CC(C/C(C)=C/COc2ccc3ccc(=O)oc3c2)OC1=O` (stereo not given), the GI50 with 786-0 is > 100 µM (inactive); with DU-145, > 100 µM (inactive); in the assay with HCC 2998, > 100 µM (inactive); with HCT-15, 95.9 µM; in the assay with HL-60 it was 59.4 µM (inactive); with HT-29, > 100 µM (inactive). The GI50 in the assay with M14, in the assay with NCI-H226, with NCI-H460, in the assay with NCI-H522, in the assay on OVCAR-3 and in the assay with OVCAR-4 was > 100 µM (inactive) each time. Moreover, the GI50 is > 100 µM (inactive) in the assay on OVCAR-5; > 100 µM (inactive) in the assay with OVCAR-8; > 100 µM (inactive) in the assay on SF-268; 95.1 µM (inactive) in the assay on SR; 90.4 µM (inactive) in the assay with U-251; > 100 µM (inactive) in the assay on UACC-62. Besides, in the assay on UO-31, the GI50 is > 100 µM (inactive).
Turning to `Clc1ccc(-c2cn3c(nc4ccccc43)c(-c3ccccc3)n2)cc1`, the GI50 was 9.35 µM (inactive) in the assay on 786-0; > 71.9 µM (inactive) in the assay on DU-145; 44.9 µM (inactive) with HCC 2998; > 100 µM in the assay on HCT-15; > 100 µM (inactive) in the assay with HL-60; 10.8 µM (inactive) in the assay on HT-29. The GI50 with M14 was 28.3 µM (inactive); in the assay with NCI-H226, 47 µM (inactive); in the assay with NCI-H460, 18 µM (inactive); with NCI-H522, 13.8 µM (inactive); in the assay on OVCAR-3 it was 27.7 µM (inactive); in the assay with OVCAR-4, 5.85 µM (inactive). The GI50 in the assay on OVCAR-5 was > 38.9 µM (inactive); in the assay with OVCAR-8, 12.1 µM (inactive); with SF-268 it was 48 µM (inactive); in the assay with SR, > 82 µM (inactive); with U-251 it was 12.8 µM (inactive); in the assay on UACC-62 it was 11.4 µM (inactive). In the assay on UO-31, the GI50 was 24.2 µM (inactive).
Regarding `N#C/C(C(=S)NCc1ccccc1)=C(/N)N1CCCC1`, the GI50 with 786-0 was > 100 µM (inactive); in the assay with DU-145, > 100 µM (inactive); in the assay with HCC 2998, > 100 µM (inactive); in the assay with HCT-15 it was > 100 µM; in the assay on HL-60, > 100 µM (inactive); in the assay with HT-29, > 100 µM (inactive). In addition, the GI50 in the assay with M14, in the assay on NCI-H226, with NCI-H460, in the assay on NCI-H522, in the assay with OVCAR-3 and in the assay on OVCAR-4 was > 100 µM (inactive) in each case. Also, the GI50 with OVCAR-5, in the assay with OVCAR-8, in the assay on SF-268, with SR, in the assay on U-251 and in the assay with UACC-62 was > 100 µM (inactive) in each case. Besides, the GI50 with UO-31 is > 100 µM (inactive).
On to `O=C(O)CCC1C(=O)C2CCN1CC2` (stereo not given), for which the GI50 in the assay with 786-0 is > 100 µM (inactive); in the assay on DU-145, > 100 µM (inactive); with HCC 2998, > 100 µM (inactive); with HCT-15, > 100 µM; in the assay on HL-60, > 100 µM (inactive); in the assay on HT-29, > 100 µM (inactive). Also, the GI50 with M14, with NCI-H226, in the assay on NCI-H460, with NCI-H522, in the assay with OVCAR-3 and in the assay with OVCAR-4 was > 100 µM (inactive) throughout. The GI50 in the assay with OVCAR-5, in the assay with OVCAR-8, in the assay with SF-268, with SR, in the assay on U-251 and with UACC-62 was > 100 µM (inactive) in each case. Further, the GI50 in the assay with UO-31 is > 100 µM (inactive).
With `COc1cccc2c1OC(c1ccc(C#N)cc1)C([N+](=O)[O-])=C2` (stereo not given), the GI50 with 786-0 is 0.482 µM (active); in the assay on DU-145 it was 3.12 µM (inactive); with HCC 2998, 1.76 µM (inactive); with HCT-15, 1.7 µM; in the assay on HL-60, 1.41 µM (inactive); in the assay with HT-29, 1.72 µM (inactive). For the same compound, the GI50 in the assay on M14 is 1.78 µM (inactive); with NCI-H226, 2.98 µM (inactive); with NCI-H460, 2.22 µM (inactive); with NCI-H522, 0.214 µM (active); with OVCAR-3, 2.02 µM (inactive); in the assay with OVCAR-4, 1.68 µM (inactive). Also, the GI50 in the assay with OVCAR-5 was 1.95 µM (inactive); in the assay on OVCAR-8 it was 1.25 µM (inactive); with SF-268, 4.12 µM (inactive); in the assay with SR it was 0.778 µM (active); with U-251 it was 1.86 µM (inactive); in the assay with UACC-62, 1.6 µM (inactive). In addition, in the assay on UO-31, the GI50 was 1.64 µM (inactive).
